Tested on: SARS-CoV-2
Assay: microbe, parasite or virus in culture
Details: Severe acute respiratory syndrome coronavirus 2, Vero C1008, 48 h

`O=C1NC(O)CCN1[C@@H]1O[C@H](CO)[C@@H](O)[C@H]1O` (stereo not given in full) [TETRAHYDROURIDINE] was tested, and the IC50 was over 20 µM and the IC50 (read-out: pIC50 (converted)) was over 20 µM.
For `c1ccc2c(c1)CCCC2C1=NCCN1` (stereo not given) [TETRAHYDROZOLINE], the IC50 was over 20 µM and the IC50 (read-out: pIC50 (converted)) was over 20 µM.
`O=C1C(O)=C(O)C(=O)C(O)=C1O` [TETROQUINONE] was tested, and the IC50 was over 20 µM and the IC50 (read-out: pIC50 (converted)) was over 20 µM.
Work on `COCCOc1c(OC)cc(Cc2cnc(N)nc2N)cc1OC` [TETROXOPRIM] yielded an IC50 of over 20 µM and an IC50 (read-out: pIC50 (converted)) of over 20 µM.
`CNc1c2c(nn1C)CCCC2` [TETRYDAMINE] gave an IC50 of over 20 µM and an IC50 (read-out: pIC50 (converted)) of over 20 µM.
`Nc1nc(N)c2nc(-c3cccc(O)c3)c(-c3cccc(O)c3)nc2n1` [TG100-115] was tested, and the IC50 was over 20 µM and the IC50 (read-out: pIC50 (converted)) was over 20 µM.
`O=C1CCC(N2C(=O)c3ccccc3C2=O)C(=O)N1` (stereo not given) [THALIDOMIDE] showed an IC50 of over 20 µM and an IC50 (read-out: pIC50 (converted)) of over 20 µM.
Work on `O=C(O[C@@H]1Cc2c(O)cc(O)cc2O[C@@H]1c1cc(O)c(=O)c2c(O)c(O)cc([C@H]3Oc4cc(O)cc(O)c4C[C@H]3OC(=O)c3cc(O)c(O)c(O)c3)c2c1)c1cc(O)c(O)c(O)c1` [THEAFLAVIN DIGALLATE] yielded an IC50 of over 20 µM and an IC50 (read-out: pIC50 (converted)) of over 20 µM.
In the case of `O=C(O[C@@H]1Cc2c(O)cc(O)cc2O[C@@H]1c1cc(O)c(=O)c2c(O)c(O)cc([C@H]3Oc4cc(O)cc(O)c4C[C@H]3O)c2c1)c1cc(O)c(O)c(O)c1` [THEAFLAVIN MONOGALLATES], the IC50 is reported as over 20 µM and the IC50 (read-out: pIC50 (converted)) is reported as over 20 µM.
Work on `O=c1c(O)cc([C@H]2Oc3cc(O)cc(O)c3C[C@H]2O)cc2c([C@H]3Oc4cc(O)cc(O)c4C[C@H]3O)cc(O)c(O)c12` [THEAFLAVIN] yielded an IC50 of over 20 µM and an IC50 (read-out: pIC50 (converted)) of over 20 µM.
`CN1CCC(N(Cc2cccs2)c2ccccc2)CC1` [THENALIDINE] showed an IC50 of over 20 µM and an IC50 (read-out: pIC50 (converted)) of over 20 µM.
`Cn1cnc2c1c(=O)[nH]c(=O)n2C` [THEOBROMINE] gave an IC50 of over 20 µM and an IC50 (read-out: pIC50 (converted)) of over 20 µM.
With `Cn1c(=O)c2c(ncn2CCOC(=O)C(C)(C)Oc2ccc(Cl)cc2)n(C)c1=O` [THEOFIBRATE] the IC50 was over 20 µM and the IC50 (read-out: pIC50 (converted)) was over 20 µM.
`Cn1c(=O)c2nc[nH]c2n(C)c1=O` [THEOPHYLLINE] showed an IC50 of over 20 µM and an IC50 (read-out: pIC50 (converted)) of over 20 µM.
`c1ccc2[nH]c(-c3cscn3)nc2c1` [THIABENDAZOLE] was tested, and the IC50 was over 20 µM and the IC50 (read-out: pIC50 (converted)) was over 20 µM.
With `C=CCC1(C2C=CCCC2)C(=O)NC(=S)NC1=O` (stereo not given) [THIALBARBITAL] the IC50 was over 20 µM and the IC50 (read-out: pIC50 (converted)) was over 20 µM.
Compound `Cc1ncc(C[n+]2csc(CCO)c2C)c(N)n1` [THIAMINE ION] has an IC50 of over 20 µM and an IC50 (read-out: pIC50 (converted)) of over 20 µM.
`Cn1cnc([N+](=O)[O-])c1Sc1nc(N)nc2[nH]cnc12` [THIAMIPRINE] showed an IC50 of over 20 µM and an IC50 (read-out: pIC50 (converted)) of over 20 µM.
With `CS(=O)(=O)c1ccc([C@@H](O)[C@@H](CO)NC(=O)C(Cl)Cl)cc1` [THIAMPHENICOL] the IC50 was over 20 µM and the IC50 (read-out: pIC50 (converted)) was over 20 µM.
With `C=CCC1(C(C)CCC)C(=O)NC(=S)NC1=O` (stereo not given) [THIAMYLAL] the IC50 was over 20 µM and the IC50 (read-out: pIC50 (converted)) was over 20 µM.
Work on `CN(C)CCN1C(=O)CC(c2ccccc2)Sc2ccccc21` (stereo not given) [THIAZESIM] yielded an IC50 of over 20 µM and an IC50 (read-out: pIC50 (converted)) of over 20 µM.
With `CCSc1ccc2c(c1)N(CCCN1CCN(C)CC1)c1ccccc1S2` [THIETHYLPERAZINE] the IC50 was over 20 µM and the IC50 (read-out: pIC50 (converted)) was over 20 µM.
For `COc1c(O[C@@H]2O[C@H](CO)[C@@H](O)[C@H](O)[C@H]2O)cc2c(c1OC)-c1ccc(SC)c(=O)cc1[C@@H](NC(C)=O)CC2` [THIOCOLCHICOSIDE], the IC50 was over 20 µM and the IC50 (read-out: pIC50 (converted)) was over 20 µM.
In the case of `NC(=O)CCCCC1CCSS1` (stereo not given) [THIOCTIC ACID AMIDE], the IC50 is reported as over 20 µM and the IC50 (read-out: pIC50 (converted)) is reported as over 20 µM.
`Nc1nc2[nH]cnc2c(=S)[nH]1` [THIOGUANINE] was tested, and the IC50 was over 20 µM and the IC50 (read-out: pIC50 (converted)) was over 20 µM.
`Nc1nc(=S)c2ncn([C@@H]3O[C@H](CO)[C@@H](O)[C@H]3O)c2[nH]1` [THIOGUANOSINE] gave an IC50 of over 20 µM and an IC50 (read-out: pIC50 (converted)) of over 20 µM.
Work on `CCCC(C)C1(CC)C(=O)NC(=S)NC1=O` (stereo not given) [THIOPENTAL] yielded an IC50 of over 20 µM and an IC50 (read-out: pIC50 (converted)) of over 20 µM.
`S=C(NC1CCCCC1)N1CCC(c2cnc[nH]2)CC1` [THIOPERAMIDE] gave an IC50 of over 20 µM and an IC50 (read-out: pIC50 (converted)) of over 20 µM.
Compound `O=C(O)[C@@H]1CSCN1` [THIOPROLINE] has an IC50 of over 20 µM and an IC50 (read-out: pIC50 (converted)) of over 20 µM.
In the case of `CC(=O)OCCN1CCN(CCCN2c3ccccc3Sc3ccc(Cl)cc32)CC1` [THIOPROPAZATE], the IC50 is reported as over 20 µM and the IC50 (read-out: pIC50 (converted)) is reported as over 20 µM.
For `O=C(O)CNC(=O)C(CS)Cc1ccccc1` (stereo not given) [THIORPHAN], the IC50 was over 20 µM and the IC50 (read-out: pIC50 (converted)) was over 20 µM.
`O=C(O)c1ccccc1S` [THIOSALICYLIC ACID] was tested, and the IC50 was over 20 µM and the IC50 (read-out: pIC50 (converted)) was over 20 µM.
For `CNc1ccc(-c2ccc3cc(OC[C@H](O)CF)ccc3n2)cn1` [THK-5351], the IC50 was over 20 µM and the IC50 (read-out: pIC50 (converted)) was over 20 µM.
In the case of `CCCCCCCCCCCCCCCC[N+](C)(C)CCN(Cc1ccc(OC)cc1)c1ncccn1` [THONZONIUM], the IC50 is reported as over 20 µM and the IC50 (read-out: pIC50 (converted)) is reported as over 20 µM.
`COc1ccc(CN(CCN(C)C)c2ncccn2)cc1` [THONZYLAMINE] showed an IC50 of over 20 µM and an IC50 (read-out: pIC50 (converted)) of over 20 µM.
`C[C@@H](O)[C@H](N)C(=O)O` [THREONINE] showed an IC50 of over 20 µM and an IC50 (read-out: pIC50 (converted)) of over 20 µM.
For `Cc1ccc(C(C)C)c(O)c1` [THYMOL], the IC50 was over 20 µM and the IC50 (read-out: pIC50 (converted)) was over 20 µM.
For `CC1=CC(=O)C(C(C)C)=CC1=O` [THYMOQUINONE], the IC50 was over 20 µM and the IC50 (read-out: pIC50 (converted)) was over 20 µM.
Compound `Cc1ccsc1C(=CCCN1CCC[C@@H](C(=O)O)C1)c1sccc1C` [TIAGABINE] has an IC50 of over 20 µM and an IC50 (read-out: pIC50 (converted)) of over 20 µM.
With `Cc1csc(Cl)c1NC1=NCCN1` [TIAMENIDINE] the IC50 was over 20 µM and the IC50 (read-out: pIC50 (converted)) was over 20 µM.
`CCN(CC)CCNC(=O)c1cc(S(C)(=O)=O)ccc1OC` [TIAPRIDE] showed an IC50 of over 20 µM and an IC50 (read-out: pIC50 (converted)) of over 20 µM.
Work on `CC(C(=O)O)c1ccc(C(=O)c2ccccc2)s1` (stereo not given) [TIAPROFENIC ACID] yielded an IC50 of over 20 µM and an IC50 (read-out: pIC50 (converted)) of over 20 µM.
With `O=C(Cn1c(=O)sc2ccc(Cl)cc21)N1CCN(CCO)CC1` [TIARAMIDE] the IC50 was over 20 µM and the IC50 (read-out: pIC50 (converted)) was over 20 µM.
With `CCOc1cc2cc(C(=O)O)sc2cc1OCC` [TIBENELAST] the IC50 was over 20 µM and the IC50 (read-out: pIC50 (converted)) was over 20 µM.
`CCCSc1nc(N[C@@H]2C[C@H]2c2ccc(F)c(F)c2)c2nnn([C@@H]3C[C@H](OCCO)[C@@H](O)[C@H]3O)c2n1` [TICAGRELOR] showed an IC50 of over 20 µM and an IC50 (read-out: pIC50 (converted)) of over 20 µM.
`COc1cc(N)c(Cl)cc1C(=O)N[C@@H]1CCNC[C@@H]1OC` [TICALOPRIDE] gave an IC50 of over 20 µM and an IC50 (read-out: pIC50 (converted)) of over 20 µM.
In the case of `O=c1[nH]sc2cc(Cl)ccc12` [TICLATONE], the IC50 is reported as over 20 µM and the IC50 (read-out: pIC50 (converted)) is reported as over 20 µM.
Compound `Clc1ccccc1CN1CCc2sccc2C1` [TICLOPIDINE] has an IC50 of over 20 µM and an IC50 (read-out: pIC50 (converted)) of over 20 µM.
For `O=c1sn(-c2cccc3ccccc23)c(=O)n1Cc1ccccc1` [TIDEGLUSIB], the IC50 was over 20 µM and the IC50 (read-out: pIC50 (converted)) was over 20 µM.
`CN(C)c1cc(NC(=O)CNC(C)(C)C)c(O)c2c1C[C@H]1C[C@H]3[C@H](N(C)C)C(O)=C(C(N)=O)C(=O)[C@@]3(O)C(O)=C1C2=O` [TIGECYCLINE] showed an IC50 of over 20 µM and an IC50 (read-out: pIC50 (converted)) of over 20 µM.
`CNC(=N)NCCC[C@H](N)C(=O)O` [TILARGININE] was tested, and the IC50 was over 20 µM and the IC50 (read-out: pIC50 (converted)) was over 20 µM.
`Cc1nc(C2CCCCC2)c(-c2ccc(S(N)(=O)=O)c(F)c2)o1` [TILMACOXIB] showed an IC50 of over 20 µM and an IC50 (read-out: pIC50 (converted)) of over 20 µM.
`O=C(O)Cc1sc2nc3ccccc3n2c1-c1ccc(Cl)cc1` [TILOMISOLE] gave an IC50 of over 20 µM and an IC50 (read-out: pIC50 (converted)) of over 20 µM.
`CCN(CC)CCOc1ccc2c(c1)C(=O)c1cc(OCCN(CC)CC)ccc1-2` [TILORONE] showed an IC50 of over 20 µM and an IC50 (read-out: pIC50 (converted)) of over 20 µM.
For `Cc1c(Cc2ccc3ccccc3n2)c2cc(F)ccc2n1CC(=O)O` [TIMAPIPRANT], the IC50 was over 20 µM and the IC50 (read-out: pIC50 (converted)) was over 20 µM.

Source: ChEMBL document CHEMBL4651402, “Screening of ~5500 FDA-approved drugs and clinical candidates for anti-SARS-CoV-2 activity” (2021)
